Experimental data published in ChEMBL document CHEMBL1150744, “Antifungal activity of Trillium grandiflorum constituents” (J Nat Prod, 1988).
≈ marks a conversion by molar mass, not a printed value.

How the values were obtained:
Saccharomyces cerevisiae = assay: Antifungal activity against Saccharomyces cerevisiae ATCC 9763 by twofold serial broth dilution assay; assay type: functional
Aspergillus flavus = assay: Antifungal activity against Aspergillus flavus ATCC 9170 by twofold serial broth dilution assay; assay type: functional
Candida albicans [1] = assay: Antifungal activity against Candida albicans NIH B311 after 24 hrs by […]; assay type: functional; conditions: NIH B311, 24 h
[2] = Toxicity in ip dosed ICR mouse assessed as morbidity and lethality after 14 days; assay type: organism-based; conditions: in vivo
[3] = tested on: Trichophyton mentagrophytes; assay: Antifungal activity against Trichophyton mentagrophytes ATCC 9972 by twofold serial broth dilution assay; assay type: functional
Candida albicans [4] = assay: Antifungal activity against Candida albicans ATCC 10231 by twofold serial broth dilution assay; assay type: functional
Aspergillus fumigatus = assay: Antifungal activity against Aspergillus fumigatus ATCC 26934 by twofold serial broth dilution assay; assay type: functional
[5] = Toxicity in iv dosed ICR mouse assessed as morbidity and lethality after 14 days; assay type: organism-based; conditions: in vivo
Cryptococcus neoformans = assay: Antifungal activity against Cryptococcus neoformans ATCC 32264 by twofold serial broth dilution assay; assay type: functional
Candida albicans [6] = assay: Antifungal activity against Candida albicans WH-D by twofold serial broth dilution assay; assay type: functional
Candida albicans [7] = assay: Antifungal activity against Candida albicans NIH B311 infected in ICR mouse assessed as reduction in number of recovered colony forming units at 0.5 mg/kg, ip administered after 7 hrs inoculation measured after 16 hrs; assay type: functional; set-up: scale not given: the % may be the effect or the level left; conditions: route intraperitoneal

Row | SMILES | MIC (Saccharomyces cerevisiae) [µg/mL] | MIC (Aspergillus flavus) [µg/mL] | MIC (Candida albicans [1]) [µg/mL] | LD50 at 336 h [2] [mg/kg] | MIC [3] [µg/mL] | MIC (Candida albicans [4]) [µg/mL] | MIC (Aspergillus fumigatus) [µg/mL] | LD50 at 336 h [5] [mg/kg] | MIC (Cryptococcus neoformans) [µg/mL] | MIC (Candida albicans [6]) [µg/mL] | Activity (Candida albicans [7]) [%]
1 | C[C@@H]1CC[C@@]2(OC1)O[C@H]1C[C@H]3[C@@H]4CC=C5C[C@@H](O[C@@H]6O[C@H](CO)[C@@H](O[C@@H]7O[C@@H](C)[C@H](O)[C@@H](O)[C@H]7O)[C@H](O)[C@H]6O[C@@H]6O[C@@H](C)[C@H](O)[C@@H](O)[C@H]6O)CC[C@]5(C)[C@H]4CC[C@]3(C)[C@H]1[C@@H]2C [DIOSCIN] | 25 (≈ 28.8 µM) | 100 (≈ 115 µM) | 1.56 (≈ 1.8 µM) | 38 | 6.25 (≈ 7.19 µM) | 3.12 (≈ 3.59 µM) | 50 (≈ 57.5 µM) | 10 | 25 (≈ 28.8 µM) | 6.25 (≈ 7.19 µM) | 
2 | C[C@@H]1[C@H](O)[C@@H](C)/C=C/C=C/C=C/C=C/C=C/C=C/C=C/[C@H](O[C@@H]2O[C@H](C)[C@@H](O)[C@H](N)[C@@H]2O)C[C@@H]2O[C@](O)(C[C@@H](O)C[C@@H](O)[C@H](O)CC[C@@H](O)C[C@@H](O)CC(=O)O[C@H]1C)C[C@H](O)[C@H]2C(=O)O [AMPHOTERICIN B] | 25 (≈ 27.1 µM) | 50 (≈ 54.1 µM) | 0.39 (≈ 0.422 µM) |  | 50 (≈ 54.1 µM) | 1.56 (≈ 1.69 µM) | 100 (≈ 108 µM) | 1 | 1.56 (≈ 1.69 µM) | 0.78 (≈ 0.844 µM) | 97.5
3 | C[C@@H]1CC[C@@]2(OC1)O[C@H]1C[C@H]3[C@@H]4CC=C5C[C@@H](O[C@@H]6O[C@H](CO)[C@@H](O[C@@H]7O[C@@H](C)[C@H](O[C@@H]8O[C@@H](C)[C@H](O)[C@@H](O)[C@H]8O)[C@@H](O)[C@H]7O)[C@H](O)[C@H]6O[C@@H]6O[C@@H](C)[C@H](O)[C@@H](O)[C@H]6O)CC[C@]5(C)[C@H]4CC[C@]3(C)[C@H]1[C@@H]2C [PENNOGENIN RAHAMNOSYL CHACOTRIOSIDE] | 12.5 (≈ 12.3 µM) | 100 (≈ 98.5 µM) | 6.25 (≈ 6.16 µM) | 28 | 3.12 (≈ 3.07 µM) | 12.5 (≈ 12.3 µM) | 100 (≈ 98.5 µM) | 5 | 12.5 (≈ 12.3 µM) | 12.5 (≈ 12.3 µM) | 
